Each molecule was assayed against T1, human vasopressin V1b receptor (Homo sapiens, UniProt P47901) (assay: Vasopressin V1b receptor binding test). Settings: membranes of CHO-K1 cells with human V1b receptor, displacement of 1.5 nM 3H-AVP; for compounds with more than one stereogenic center the diastereomer with greater affinity.
T1 construct: expressed in transfected cells; host or cells: CHO-K1 (cell line hV1b_3H2_CHO), membrane preparation
T1 sequence (P47901 1-424): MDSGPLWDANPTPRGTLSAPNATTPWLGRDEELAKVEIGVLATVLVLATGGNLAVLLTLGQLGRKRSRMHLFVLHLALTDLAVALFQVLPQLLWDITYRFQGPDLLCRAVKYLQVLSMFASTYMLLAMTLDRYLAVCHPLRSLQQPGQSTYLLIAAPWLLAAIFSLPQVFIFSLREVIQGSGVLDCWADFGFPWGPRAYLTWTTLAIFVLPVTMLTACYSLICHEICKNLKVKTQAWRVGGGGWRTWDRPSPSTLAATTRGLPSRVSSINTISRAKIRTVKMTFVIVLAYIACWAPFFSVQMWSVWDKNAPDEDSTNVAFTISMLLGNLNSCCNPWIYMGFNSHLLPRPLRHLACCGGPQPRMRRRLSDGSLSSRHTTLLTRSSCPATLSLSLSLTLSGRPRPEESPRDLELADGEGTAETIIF
Procedure: Vasopressin V1b Receptor Binding Test:
The test substances were dissolved at a concentration of 10^−2 M in DMSO, and were further diluted to 5×10^−4 M to 5×10^−9 M in DMSO. This DMSO predilution series was diluted 1:10 with test buffer. In the test assay the substance concentration was further diluted to 1:5 (2% DMSO in the assay).
The membrane pellet was homogenized again as described and centrifuged, and was then taken up in 50 mM tris-HCl at pH 7.4, homogenized, and frozen in aliquots at −190° C. and stored in liquid nitrogen.
The incubation buffer was 50 mM tris, 10 mM MgCl2, and 0.1% BSA at pH 7.4. […] The nonspecific binding was determined using 1 μM AVP (Bachem #H1780). All determinations were performed in triplicate. After incubation (60 minutes at room temperature), the free radioligand was filtered off by vacuum filtration (Skatron 7000 cell harvester) through Wathman GF/B fiberglass filter mats, and the filters were transferred to scintillation vessels. The liquid scintillation measurement was conducted in a Model 2000 or 2200CA TriCarb unit (Packard). The measured cpm was converted to dpm using a standard quench series.
The binding parameters were calculated by nonlinear regression in SAS.
The affinities of the compounds according to the invention for human vasopressin receptor V1b were measured according to the above test, and the affinity constants (Ki) were determined.
Molecule COCCN(C)Cc1ccc(C2(N3CCC[C@H]3c3ncco3)C(=O)N(S(=O)(=O)c3ccc(OC)cc3)c3ccc(Cl)cc32)c(OC)c1 (stereo partly drawn) [Example 22, 5-Chloro-1-(4-methoxybenzenesulfonyl)-3-(2-methoxy-4-{[(2-methoxyethyl)methylamino]methyl}phenyl)-3-((S)-2-oxazol-2-yl-pyrrolidin-1-yl)-1,3-dihydroindol-2-one] has a Ki of 10 to 100 nM. Molecule COc1ccc(S(=O)(=O)N2C(=O)C(c3ccc(CN4CCN(C)CC4)cc3OC)(N3CCC[C@H]3c3ncco3)c3cc(Cl)ccc32)cc1 (stereo partly drawn) [Example 23, 5-Chloro-1-(4-methoxybenzenesulfonyl)-3-[2-methoxy-4-(4-methylpiperazin-1-ylmethyl)phenyl]-3-((S)-2-oxazol-2-yl-pyrrolidin-1-yl)-1,3-dihydroindol-2-one] has a Ki of less than 10 nM. COc1ccc(S(=O)(=O)N2C(=O)C(c3ccc(CN4CCNCC4)cc3OC)(N3CCC[C@H]3c3ncco3)c3cc(Cl)ccc32)cc1 (stereo partly drawn) [Example 24, 5-Chloro-1-(4-methoxybenzenesulfonyl)-3-(2-methoxy-4-piperazin-1-ylmethylphenyl)-3-((S)-2-oxazol-2-yl-pyrrolidin-1-yl)-1,3-dihydroindol-2-one] was tested, and the Ki was less than 10 nM. COc1ccc(S(=O)(=O)N2C(=O)C(c3ccc(CN4CCCC4)cc3OC)(N3CCC[C@H]3c3ncco3)c3cc(Cl)ccc32)cc1 (stereo partly drawn) [Example 25, 5-Chloro-1-(4-methoxybenzenesulfonyl)-3-(2-methoxy-4-pyrrolidin-1-ylmethylphenyl)-3-((S)-2-oxazol-2-yl-pyrrolidin-1-yl)-1,3-dihydroindol-2-one] gave a Ki of less than 10 nM. COc1ccc(S(=O)(=O)N2C(=O)C(c3ccc(CN4CCCCC4)cc3OC)(N3CCC[C@H]3c3ncco3)c3cc(Cl)ccc32)cc1 (stereo partly drawn) [Example 26, 5-Chloro-1-(4-methoxybenzenesulfonyl)-3-(2-methoxy-4-piperidin-1-ylmethylphenyl)-3-((S)-2-oxazol-2-yl-pyrrolidin-1-yl)-1,3-dihydroindol-2-one] showed a Ki of less than 10 nM. For COc1ccc(S(=O)(=O)N2C(=O)C(c3cc(CN(C)C)ccc3OC)(N3CCC[C@H]3c3ncco3)c3ccc(Cl)cc32)cc1 (stereo partly drawn) [Example 28, 6-Chloro-3-(5-dimethylaminomethyl-2-methoxyphenyl)-1-(4-methoxybenzenesulfonyl)-3-((S)-2-oxazol-2-yl-pyrrolidin-1-yl)-1,3-dihydroindol-2-one], the Ki was 100 to 1000 nM. CCN(C)Cc1ccc(OC)c(C2(N3CCC[C@H]3c3ncco3)C(=O)N(S(=O)(=O)c3ccc(OC)cc3)c3cc(Cl)ccc32)c1 (stereo partly drawn) [Example 30, 6-Chloro-3-{5-[(ethylmethylamino)methyl]-2-methoxyphenyl}-1-(4-methoxybenzenesulfonyl)-3-((S)-2-oxazol-2-yl-pyrrolidin-1-yl)-1,3-dihydroindol-2-one] was tested, and the Ki was 100 to 1000 nM. Work on CCN(CC)Cc1ccc(OC)c(C2(N3CCC[C@H]3c3ncco3)C(=O)N(S(=O)(=O)c3ccc(OC)cc3)c3cc(Cl)ccc32)c1 (stereo partly drawn) [Example 31, 6-Chloro-3-(5-diethylaminomethyl-2-methoxyphenyl)-1-(4-methoxybenzenesulfonyl)-3-((S)-2-oxazol-2-yl-pyrrolidin-1-yl)-1,3-dihydroindol-2-one] yielded a Ki of 100 to 1000 nM. CCCNCc1ccc(OC)c(C2(N3CCC[C@H]3c3ncco3)C(=O)N(S(=O)(=O)c3ccc(OC)cc3)c3cc(Cl)ccc32)c1 (stereo partly drawn) [Example 32, 6-Chloro-1-(4-methoxybenzenesulfonyl)-3-(2-methoxy-5-propylaminomethylphenyl)-3-((S)-2-oxazol-2-yl-pyrrolidin-1-yl)-1,3-dihydroindol-2-one] gave a Ki of 100 to 1000 nM. COc1ccc(S(=O)(=O)N2C(=O)C(c3cc(CN(C)C(C)C)ccc3OC)(N3CCC[C@H]3c3ncco3)c3ccc(Cl)cc32)cc1 (stereo partly drawn) [Example 33, 6-Chloro-3-{5-[(isopropylmethylamino)methyl]-2-methoxyphenyl}-1-(4-methoxybenzenesulfonyl)-3-((S)-2-oxazol-2-yl-pyrrolidin-1-yl)-1,3-dihydroindol-2-one] was tested, and the Ki was 100 to 1000 nM. COCCN(C)Cc1ccc(OC)c(C2(N3CCC[C@H]3c3ncco3)C(=O)N(S(=O)(=O)c3ccc(OC)cc3)c3cc(Cl)ccc32)c1 (stereo partly drawn) [Example 34, 6-Chloro-1-(4-methoxybenzenesulfonyl)-3-(2-methoxy-5-{[(2-methoxyethyl)methylamino]methyl}phenyl)-3-((S)-2-oxazol-2-yl-pyrrolidin-1-yl)-1,3-dihydroindol-2-one] gave a Ki of 100 to 1000 nM. Molecule COc1ccc(S(=O)(=O)N2C(=O)C(c3cc(CN4CCN(C)CC4)ccc3OC)(N3CCC[C@H]3c3ncco3)c3ccc(Cl)cc32)cc1 (stereo partly drawn) [Example 35, 6-Chloro-1-(4-methoxybenzenesulfonyl)-3-[2-methoxy-5-(4-methylpiperazin-1-ylmethyl)phenyl]-3-((S)-2-oxazol-2-yl-pyrrolidin-1-yl)-1,3-dihydroindol-2-one] has a Ki of 100 to 1000 nM. COc1ccc(S(=O)(=O)N2C(=O)C(c3cc(CN4CCOCC4)ccc3OC)(N3CCC[C@H]3c3ncco3)c3ccc(Cl)cc32)cc1 (stereo partly drawn) [Example 37, 6-Chloro-1-(4-methoxybenzenesulfonyl)-3-(2-methoxy-5-morpholin-4-ylmethylphenyl)-3-((S)-2-oxazol-2-yl-pyrrolidin-1-yl)-1,3-dihydroindol-2-one] gave a Ki of 100 to 1000 nM. In the case of COc1ccc(S(=O)(=O)N2C(=O)C(c3cc(CN4CCC4)ccc3OC)(N3CCC[C@H]3c3ncco3)c3ccc(Cl)cc32)cc1 (stereo partly drawn) [Example 38, 3-(5-Azetidin-1-ylmethyl-2-methoxyphenyl)-6-chloro-1-(4-methoxybenzenesulfonyl)-3-((S)-2-oxazol-2-yl-pyrrolidin-1-yl)-1,3-dihydroindol-2-one], the Ki is reported as 100 to 1000 nM. Molecule COc1ccc(S(=O)(=O)N2C(=O)C(c3cc(CN4CCCC4)ccc3OC)(N3CCC[C@H]3c3ncco3)c3ccc(Cl)cc32)cc1 (stereo partly drawn) [Example 39, 6-Chloro-1-(4-methoxybenzenesulfonyl)-3-(2-methoxy-5-pyrrolidin-1-ylmethylphenyl)-3-((S)-2-oxazol-2-yl-pyrrolidin-1-yl)-1,3-dihydroindol-2-one] has a Ki of 100 to 1000 nM. Work on COc1ccc(S(=O)(=O)N2C(=O)C(c3cc(CN4CCCCC4)ccc3OC)(N3CCC[C@H]3c3ncco3)c3ccc(Cl)cc32)cc1 (stereo partly drawn) [Example 40, 6-Chloro-1-(4-methoxybenzenesulfonyl)-3-(2-methoxy-5-piperidin-1-ylmethylphenyl)-3-((S)-2-oxazol-2-yl-pyrrolidin-1-yl)-1,3-dihydroindol-2-one] yielded a Ki of 100 to 1000 nM. Molecule COc1ccc(S(=O)(=O)N2C(=O)C(c3ccc(CN(C)C)cc3OC)(N3CCC[C@H]3c3ncco3)c3cc(C#N)ccc32)cc1 (stereo partly drawn) [Example 41, 5-Cyano-3-(4-dimethylaminomethyl-2-methoxyphenyl)-1-(4-methoxybenzenesulfonyl)-3-((S)-2-oxazol-2-yl-pyrrolidin-1-yl)-1,3-dihydroindol-2-one] has a Ki of 10 to 100 nM. With COc1ccc(S(=O)(=O)N2C(=O)C(c3ccc(CN4CCN(C)CC4)cc3OC)(N3CCC[C@H]3c3ncco3)c3cc(C#N)ccc32)cc1 (stereo partly drawn) [Example 42, 5-Cyano-1-(4-methoxybenzenesulfonyl)-3-[2-methoxy-4-(4-methylpiperazin-1-ylmethyl)phenyl]-3-((S)-2-oxazol-2-yl-pyrrolidin-1-yl)-1,3-dihydroindol-2-one] the Ki was 10 to 100 nM. Work on COc1ccc(S(=O)(=O)N2C(=O)C(c3ccc(CN4CCOCC4)cc3OC)(N3CCC[C@H]3c3ncco3)c3cc(C#N)ccc32)cc1 (stereo partly drawn) [Example 43, 5-Cyano-1-(4-methoxybenzenesulfonyl)-3-(2-methoxy-4-morpholin-4-ylmethylphenyl)-3-((S)-2-oxazol-2-yl-pyrrolidin-1-yl)-1,3-dihydroindol-2-one] yielded a Ki of 100 to 1000 nM. Molecule CNCc1ccc(OC)c(C2(N3CCC[C@H]3c3ncco3)C(=O)N(S(=O)(=O)c3ccc(OC)cc3)c3ccc(C#N)cc32)c1 (stereo partly drawn) [Example 45, 5-Cyano-1-(4-methoxybenzenesulfonyl)-3-(2-methoxy-5-methylaminomethylphenyl)-3-((S)-2-oxazol-2-yl-pyrrolidin-1-yl)-1,3-dihydroindol-2-one] has a Ki of less than 10 nM. Work on COc1ccc(S(=O)(=O)N2C(=O)C(c3cc(CN(C)C)ccc3OC)(N3CCC[C@H]3c3ncco3)c3cc(C#N)ccc32)cc1 (stereo partly drawn) [Example 46, 5-Cyano-3-(5-dimethylaminomethyl-2-methoxyphenyl)-1-(4-methoxybenzenesulfonyl)-3-((S)-2-oxazol-2-yl-pyrrolidin-1-yl)-1,3-dihydroindol-2-one] yielded a Ki of 10 to 100 nM. With CCNCc1ccc(OC)c(C2(N3CCC[C@H]3c3ncco3)C(=O)N(S(=O)(=O)c3ccc(OC)cc3)c3ccc(C#N)cc32)c1 (stereo partly drawn) [Example 47, 5-Cyano-3-(5-ethylaminomethyl-2-methoxyphenyl)-1-(4-methoxybenzenesulfonyl)-3-((S)-2-oxazol-2-yl-pyrrolidin-1-yl)-1,3-dihydroindol-2-one] the Ki was less than 10 nM.

From patent US8044079B2, “Substituted oxindole derivatives, medicaments containing said derivatives and use thereof” (Abbott GmbH & Co. KG, priority 2005, dated 2011)
